Reference: ChEMBL document CHEMBL4507291 (2021)

Legend:
[1] = target: Beta-3 adrenergic receptor (Homo sapiens) (UniProt P13945); details: Compound concentration 10.0 uM
[2] = target: Death-associated protein kinase 3 (Homo sapiens) (UniProt O43293); assay: DAPK3 (ZIPK) Kinase screen; details: Compound concentration 1.0 uM
[3] = target: Protein-tyrosine kinase 6 (Homo sapiens) (UniProt Q13882); assay: PTK6 (Brk) Kinase screen; details: Compound concentration 1.0 uM
[4] = system: Serine/threonine-protein kinase B-raf (Homo sapiens), P15056 [V600E]; assay: BRAF V599E Kinase screen; details: Compound concentration 1.0 uM
[5] = target: Insulin receptor (Homo sapiens) (UniProt P06213); assay: Protein Tyrosine Kinase, Insulin Receptor Eurofins-Panlabs enzyme assay; set-up: substrate with concentration; details: Compound concentration 10.0 uM
[6] = target: Tyrosine-protein kinase BTK (Homo sapiens) (UniProt Q06187); assay: BTK Kinase screen; details: Compound concentration 1.0 uM
[7] = target: Progesterone receptor (Homo sapiens) (UniProt P06401); assay: Inhibition of Progesterone PR-B at 10 µM in the Eurofins-Panlabs radioligand binding assay (Eurofins_assay_268020); set-up: ligand concentration 1.4 nM; details: Compound concentration 10.0 uM
[8] = target: T1, Tyrosine-protein kinase ZAP-70 (Homo sapiens) (UniProt P43403); assay: ZAP70 Kinase screen; details: Compound concentration 1.0 uM
T1 sequence (whole entry): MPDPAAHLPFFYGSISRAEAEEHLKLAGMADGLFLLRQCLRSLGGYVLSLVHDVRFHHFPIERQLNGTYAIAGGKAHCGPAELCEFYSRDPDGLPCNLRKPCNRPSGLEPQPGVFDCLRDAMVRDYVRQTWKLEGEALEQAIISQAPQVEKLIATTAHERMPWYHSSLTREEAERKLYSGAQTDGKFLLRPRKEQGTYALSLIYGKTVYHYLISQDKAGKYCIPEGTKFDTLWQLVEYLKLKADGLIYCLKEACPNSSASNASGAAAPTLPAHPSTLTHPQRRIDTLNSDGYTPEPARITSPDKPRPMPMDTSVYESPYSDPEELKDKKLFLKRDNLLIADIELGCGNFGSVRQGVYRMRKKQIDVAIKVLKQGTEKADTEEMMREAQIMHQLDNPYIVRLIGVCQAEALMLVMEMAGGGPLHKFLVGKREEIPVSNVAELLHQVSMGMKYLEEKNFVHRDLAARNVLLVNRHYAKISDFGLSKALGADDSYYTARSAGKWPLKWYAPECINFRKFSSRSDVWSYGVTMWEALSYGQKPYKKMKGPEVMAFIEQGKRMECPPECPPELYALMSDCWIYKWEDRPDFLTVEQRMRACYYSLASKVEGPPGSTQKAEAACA

[9] = target: Serine/threonine-protein kinase 33 (Homo sapiens) (UniProt Q9BYT3); assay: STK33 Kinase screen; details: Compound concentration 1.0 uM
[10] = organism: Homo sapiens; assay: Glutamate, Metabotropic, mGlu5 Eurofins-Panlabs radioligand binding assay; details: Compound concentration 10.0 uM
[11] = target: Rho-associated protein kinase 1 (Homo sapiens) (UniProt Q13464); assay: ROCK1 Kinase screen; details: Compound concentration 1.0 uM
[12] = target: T2, Beta-adrenergic receptor kinase 1 (Homo sapiens) (UniProt P25098); assay: ADRBK1 (GRK2) Kinase screen; details: Compound concentration 1.0 uM
T2 sequence (whole entry): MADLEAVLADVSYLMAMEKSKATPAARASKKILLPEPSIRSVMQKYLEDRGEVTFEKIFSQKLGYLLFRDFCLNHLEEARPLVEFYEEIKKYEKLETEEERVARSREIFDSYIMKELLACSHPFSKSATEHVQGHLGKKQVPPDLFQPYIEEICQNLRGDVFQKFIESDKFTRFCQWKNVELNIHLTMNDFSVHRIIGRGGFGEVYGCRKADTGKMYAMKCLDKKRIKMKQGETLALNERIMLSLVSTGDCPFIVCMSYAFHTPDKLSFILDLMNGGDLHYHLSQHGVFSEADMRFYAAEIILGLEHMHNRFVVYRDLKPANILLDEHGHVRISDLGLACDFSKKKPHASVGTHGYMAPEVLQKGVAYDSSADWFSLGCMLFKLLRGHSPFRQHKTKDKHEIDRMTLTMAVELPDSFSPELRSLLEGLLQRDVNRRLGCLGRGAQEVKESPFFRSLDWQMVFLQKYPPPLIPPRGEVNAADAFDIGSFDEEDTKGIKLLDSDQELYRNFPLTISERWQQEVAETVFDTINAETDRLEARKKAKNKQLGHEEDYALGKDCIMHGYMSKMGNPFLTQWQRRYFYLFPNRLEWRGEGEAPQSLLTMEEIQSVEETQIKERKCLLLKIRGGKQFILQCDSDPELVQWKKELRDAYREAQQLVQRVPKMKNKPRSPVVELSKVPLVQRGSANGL

[13] = target: Serine/threonine-protein kinase MARK1 (Homo sapiens) (UniProt Q9P0L2); assay: MARK1 (MARK) Kinase screen; details: Compound concentration 1.0 uM
[14] = target: Serine/threonine-protein kinase PAK 4 (Homo sapiens) (UniProt O96013); assay: PAK4 Kinase screen; details: Compound concentration 1.0 uM
[15] = organism: Homo sapiens; assay: Chemokine CCR1 Eurofins-Panlabs radioligand binding assay; set-up: ligand concentration 0.1 nM; details: Compound concentration 10.0 uM
[16] = target: Tyrosine-protein kinase receptor UFO (Homo sapiens) (UniProt P30530); assay: AXL Kinase screen; details: Compound concentration 1.0 uM
[17] = target: Beta-2 adrenergic receptor (Homo sapiens) (UniProt P07550); details: Compound concentration 10.0 uM

Measured: inhibition

Chain of Progesterone receptor (Homo sapiens) (P06401 whole entry): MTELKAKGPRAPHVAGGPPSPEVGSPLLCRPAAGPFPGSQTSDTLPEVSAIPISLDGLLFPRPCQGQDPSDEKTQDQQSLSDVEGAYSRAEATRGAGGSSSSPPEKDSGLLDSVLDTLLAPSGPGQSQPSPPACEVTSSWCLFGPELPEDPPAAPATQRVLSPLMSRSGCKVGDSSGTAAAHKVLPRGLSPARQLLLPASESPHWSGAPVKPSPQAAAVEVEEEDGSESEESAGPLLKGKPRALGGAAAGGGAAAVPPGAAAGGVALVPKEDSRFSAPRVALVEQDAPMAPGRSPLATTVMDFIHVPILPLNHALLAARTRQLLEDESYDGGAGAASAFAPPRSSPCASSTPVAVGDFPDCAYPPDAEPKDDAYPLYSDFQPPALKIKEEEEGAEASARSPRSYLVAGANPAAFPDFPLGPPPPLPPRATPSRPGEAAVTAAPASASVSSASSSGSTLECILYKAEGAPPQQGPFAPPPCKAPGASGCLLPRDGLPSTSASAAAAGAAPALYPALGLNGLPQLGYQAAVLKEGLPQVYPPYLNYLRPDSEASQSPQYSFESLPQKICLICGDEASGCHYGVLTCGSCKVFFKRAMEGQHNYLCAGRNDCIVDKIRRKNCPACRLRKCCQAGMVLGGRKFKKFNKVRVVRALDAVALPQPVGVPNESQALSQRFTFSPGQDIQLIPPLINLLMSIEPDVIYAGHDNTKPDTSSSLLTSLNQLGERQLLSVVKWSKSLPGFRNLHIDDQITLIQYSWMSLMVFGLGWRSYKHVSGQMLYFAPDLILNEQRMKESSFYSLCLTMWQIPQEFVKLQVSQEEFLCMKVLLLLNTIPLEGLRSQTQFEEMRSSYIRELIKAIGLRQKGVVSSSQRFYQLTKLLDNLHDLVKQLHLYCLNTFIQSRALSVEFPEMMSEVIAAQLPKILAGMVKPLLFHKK
Chain of Serine/threonine-protein kinase MARK1 (Homo sapiens) (Q9P0L2 whole entry, looked up): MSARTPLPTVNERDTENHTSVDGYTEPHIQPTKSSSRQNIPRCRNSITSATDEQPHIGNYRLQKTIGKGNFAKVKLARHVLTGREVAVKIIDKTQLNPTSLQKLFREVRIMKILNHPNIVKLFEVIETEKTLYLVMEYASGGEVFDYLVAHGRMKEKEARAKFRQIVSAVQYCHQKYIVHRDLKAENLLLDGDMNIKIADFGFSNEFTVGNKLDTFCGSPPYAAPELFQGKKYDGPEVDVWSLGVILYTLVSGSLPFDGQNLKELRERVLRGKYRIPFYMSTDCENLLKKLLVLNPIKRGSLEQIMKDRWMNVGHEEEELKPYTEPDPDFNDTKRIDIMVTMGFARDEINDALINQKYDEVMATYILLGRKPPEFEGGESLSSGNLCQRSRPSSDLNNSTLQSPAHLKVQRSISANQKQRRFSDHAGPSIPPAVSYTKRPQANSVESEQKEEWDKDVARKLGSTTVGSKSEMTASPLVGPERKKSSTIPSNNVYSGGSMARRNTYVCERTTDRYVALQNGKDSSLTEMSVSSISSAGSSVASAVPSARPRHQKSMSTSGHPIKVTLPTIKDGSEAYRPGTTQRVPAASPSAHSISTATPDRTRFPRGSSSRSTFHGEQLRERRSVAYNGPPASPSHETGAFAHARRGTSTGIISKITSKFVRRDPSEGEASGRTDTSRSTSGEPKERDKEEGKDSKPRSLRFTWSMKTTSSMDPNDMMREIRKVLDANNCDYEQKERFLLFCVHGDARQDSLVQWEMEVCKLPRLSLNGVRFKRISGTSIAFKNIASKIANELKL
Chain of Serine/threonine-protein kinase 33 (Homo sapiens) (Q9BYT3 whole entry, looked up): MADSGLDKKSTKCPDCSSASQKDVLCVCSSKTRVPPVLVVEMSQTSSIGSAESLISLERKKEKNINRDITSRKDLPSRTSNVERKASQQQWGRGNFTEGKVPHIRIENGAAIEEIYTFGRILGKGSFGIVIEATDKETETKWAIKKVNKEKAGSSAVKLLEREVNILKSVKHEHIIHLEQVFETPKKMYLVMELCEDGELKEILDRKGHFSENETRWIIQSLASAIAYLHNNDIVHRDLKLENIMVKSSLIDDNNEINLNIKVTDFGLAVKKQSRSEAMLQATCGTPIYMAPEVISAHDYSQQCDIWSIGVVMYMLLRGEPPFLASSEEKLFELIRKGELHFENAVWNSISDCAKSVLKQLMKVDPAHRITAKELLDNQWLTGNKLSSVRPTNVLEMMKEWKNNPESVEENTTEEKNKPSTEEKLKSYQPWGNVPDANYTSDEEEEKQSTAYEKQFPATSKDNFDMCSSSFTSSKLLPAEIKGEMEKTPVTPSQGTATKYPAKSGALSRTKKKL
Chain of Protein-tyrosine kinase 6 (Homo sapiens) (Q13882 whole entry, looked up): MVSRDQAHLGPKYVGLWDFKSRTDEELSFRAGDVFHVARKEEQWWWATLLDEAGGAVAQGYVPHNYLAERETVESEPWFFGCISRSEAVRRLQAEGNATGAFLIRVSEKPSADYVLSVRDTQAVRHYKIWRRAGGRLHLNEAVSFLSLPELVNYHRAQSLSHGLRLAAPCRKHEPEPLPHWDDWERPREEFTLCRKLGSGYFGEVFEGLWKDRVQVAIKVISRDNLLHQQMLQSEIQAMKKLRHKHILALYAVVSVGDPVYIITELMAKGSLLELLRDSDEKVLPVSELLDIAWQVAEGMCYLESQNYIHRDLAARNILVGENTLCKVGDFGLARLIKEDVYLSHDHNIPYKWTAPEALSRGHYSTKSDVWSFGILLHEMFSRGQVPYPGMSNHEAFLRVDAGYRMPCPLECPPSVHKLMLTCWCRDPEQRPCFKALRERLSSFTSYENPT
Chain of Beta-2 adrenergic receptor (Homo sapiens) (P07550 whole entry, looked up): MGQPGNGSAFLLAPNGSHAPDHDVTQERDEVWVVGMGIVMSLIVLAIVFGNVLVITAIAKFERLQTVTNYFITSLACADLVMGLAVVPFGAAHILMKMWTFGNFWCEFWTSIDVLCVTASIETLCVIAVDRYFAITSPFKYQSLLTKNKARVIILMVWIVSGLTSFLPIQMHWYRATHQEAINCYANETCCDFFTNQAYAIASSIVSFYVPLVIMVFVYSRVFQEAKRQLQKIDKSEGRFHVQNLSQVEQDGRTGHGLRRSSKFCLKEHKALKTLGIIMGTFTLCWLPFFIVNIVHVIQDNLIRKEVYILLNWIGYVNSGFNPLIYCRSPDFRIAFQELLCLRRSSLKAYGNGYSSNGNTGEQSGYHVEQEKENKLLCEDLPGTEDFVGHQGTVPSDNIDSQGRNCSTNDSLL
Chain of Rho-associated protein kinase 1 (Homo sapiens) (Q13464 2-1354 limits assumed): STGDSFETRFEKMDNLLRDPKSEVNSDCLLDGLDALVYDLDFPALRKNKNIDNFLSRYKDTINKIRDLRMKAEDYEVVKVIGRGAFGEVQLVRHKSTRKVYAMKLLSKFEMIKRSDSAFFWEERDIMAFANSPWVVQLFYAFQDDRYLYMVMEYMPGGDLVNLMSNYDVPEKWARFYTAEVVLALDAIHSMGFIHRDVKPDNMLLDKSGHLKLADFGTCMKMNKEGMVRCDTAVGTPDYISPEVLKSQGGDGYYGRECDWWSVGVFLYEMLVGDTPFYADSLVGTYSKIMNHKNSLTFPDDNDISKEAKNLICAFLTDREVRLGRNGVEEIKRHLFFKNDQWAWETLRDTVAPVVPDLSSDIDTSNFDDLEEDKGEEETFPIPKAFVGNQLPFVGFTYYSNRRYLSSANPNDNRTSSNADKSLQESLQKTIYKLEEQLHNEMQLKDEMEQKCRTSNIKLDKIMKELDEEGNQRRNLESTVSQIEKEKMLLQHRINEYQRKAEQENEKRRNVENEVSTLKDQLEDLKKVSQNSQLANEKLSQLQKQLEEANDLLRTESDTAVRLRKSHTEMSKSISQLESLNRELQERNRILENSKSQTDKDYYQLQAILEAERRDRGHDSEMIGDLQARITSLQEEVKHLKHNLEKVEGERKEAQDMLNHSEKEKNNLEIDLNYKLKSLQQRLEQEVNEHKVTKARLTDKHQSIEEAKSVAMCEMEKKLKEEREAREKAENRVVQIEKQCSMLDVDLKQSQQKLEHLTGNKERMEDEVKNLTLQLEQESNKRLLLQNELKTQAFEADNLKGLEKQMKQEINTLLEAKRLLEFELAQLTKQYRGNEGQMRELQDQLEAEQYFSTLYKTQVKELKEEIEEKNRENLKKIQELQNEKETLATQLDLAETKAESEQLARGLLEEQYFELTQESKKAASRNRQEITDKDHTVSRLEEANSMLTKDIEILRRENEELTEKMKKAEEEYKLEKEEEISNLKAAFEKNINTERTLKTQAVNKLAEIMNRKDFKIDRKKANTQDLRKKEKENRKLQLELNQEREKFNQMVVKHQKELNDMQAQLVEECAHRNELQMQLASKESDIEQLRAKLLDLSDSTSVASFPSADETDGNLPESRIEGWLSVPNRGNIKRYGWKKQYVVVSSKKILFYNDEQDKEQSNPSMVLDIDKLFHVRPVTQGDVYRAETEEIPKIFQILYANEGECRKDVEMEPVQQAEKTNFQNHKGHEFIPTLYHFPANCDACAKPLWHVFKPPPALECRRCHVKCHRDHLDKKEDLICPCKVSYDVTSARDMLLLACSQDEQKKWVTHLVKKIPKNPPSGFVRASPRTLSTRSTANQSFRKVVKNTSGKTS
Chain of Beta-3 adrenergic receptor (Homo sapiens) (P13945 whole entry, looked up): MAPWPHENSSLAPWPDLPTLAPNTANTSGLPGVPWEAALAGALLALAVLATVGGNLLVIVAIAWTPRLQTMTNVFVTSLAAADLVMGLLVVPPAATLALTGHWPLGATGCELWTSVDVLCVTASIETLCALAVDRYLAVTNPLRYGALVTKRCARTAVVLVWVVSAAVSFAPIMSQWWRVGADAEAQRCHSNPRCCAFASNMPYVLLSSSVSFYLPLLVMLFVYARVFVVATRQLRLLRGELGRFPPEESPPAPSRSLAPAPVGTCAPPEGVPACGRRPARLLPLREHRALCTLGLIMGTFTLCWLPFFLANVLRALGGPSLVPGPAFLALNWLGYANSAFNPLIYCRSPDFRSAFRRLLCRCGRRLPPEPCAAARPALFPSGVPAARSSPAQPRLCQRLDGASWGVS

C[C@@H]1CN(c2cc(-c3n[nH]c4ccc(OC5(C)CC5)cc34)ncn2)C[C@H](C)O1 [MLi-2]
inactive: [1] 21% | [2] 5.27% | [3] 2.74% | [4] 10.4% | [5] 9% | [6] 4.5% | [7] 30% | [8] 10.2% | [9] 24.3% | [10] 0% | [11] -0.899% | [12] 3.84% | [13] 8.35% | [14] -7.34% | [15] -3% | [16] 4.79% | [17] 16%
